Here are results for 19 compounds from patent US20240425480A1, “NOVEL PYRIDINE DERIVATIVE COMPOUND AS RON INHIBITOR” (LG CHEM, LTD., priority 2021, published 2024).

One experiment deals with cMET (Homo sapiens, UniProt P08581). The experiment in a line: Inhibitory activity against MET (cMET), TR-FRET kinase assay. It is filed as biochemical. The note with it: TR-FRET enzyme assay. The procedure: In addition, in order to measure the enzyme activity inhibition for cMET, the evaluation was performed in the same manner as the enzyme activity inhibition measurement experiment for RON.
Sequence of cMET (P08581 25-1390): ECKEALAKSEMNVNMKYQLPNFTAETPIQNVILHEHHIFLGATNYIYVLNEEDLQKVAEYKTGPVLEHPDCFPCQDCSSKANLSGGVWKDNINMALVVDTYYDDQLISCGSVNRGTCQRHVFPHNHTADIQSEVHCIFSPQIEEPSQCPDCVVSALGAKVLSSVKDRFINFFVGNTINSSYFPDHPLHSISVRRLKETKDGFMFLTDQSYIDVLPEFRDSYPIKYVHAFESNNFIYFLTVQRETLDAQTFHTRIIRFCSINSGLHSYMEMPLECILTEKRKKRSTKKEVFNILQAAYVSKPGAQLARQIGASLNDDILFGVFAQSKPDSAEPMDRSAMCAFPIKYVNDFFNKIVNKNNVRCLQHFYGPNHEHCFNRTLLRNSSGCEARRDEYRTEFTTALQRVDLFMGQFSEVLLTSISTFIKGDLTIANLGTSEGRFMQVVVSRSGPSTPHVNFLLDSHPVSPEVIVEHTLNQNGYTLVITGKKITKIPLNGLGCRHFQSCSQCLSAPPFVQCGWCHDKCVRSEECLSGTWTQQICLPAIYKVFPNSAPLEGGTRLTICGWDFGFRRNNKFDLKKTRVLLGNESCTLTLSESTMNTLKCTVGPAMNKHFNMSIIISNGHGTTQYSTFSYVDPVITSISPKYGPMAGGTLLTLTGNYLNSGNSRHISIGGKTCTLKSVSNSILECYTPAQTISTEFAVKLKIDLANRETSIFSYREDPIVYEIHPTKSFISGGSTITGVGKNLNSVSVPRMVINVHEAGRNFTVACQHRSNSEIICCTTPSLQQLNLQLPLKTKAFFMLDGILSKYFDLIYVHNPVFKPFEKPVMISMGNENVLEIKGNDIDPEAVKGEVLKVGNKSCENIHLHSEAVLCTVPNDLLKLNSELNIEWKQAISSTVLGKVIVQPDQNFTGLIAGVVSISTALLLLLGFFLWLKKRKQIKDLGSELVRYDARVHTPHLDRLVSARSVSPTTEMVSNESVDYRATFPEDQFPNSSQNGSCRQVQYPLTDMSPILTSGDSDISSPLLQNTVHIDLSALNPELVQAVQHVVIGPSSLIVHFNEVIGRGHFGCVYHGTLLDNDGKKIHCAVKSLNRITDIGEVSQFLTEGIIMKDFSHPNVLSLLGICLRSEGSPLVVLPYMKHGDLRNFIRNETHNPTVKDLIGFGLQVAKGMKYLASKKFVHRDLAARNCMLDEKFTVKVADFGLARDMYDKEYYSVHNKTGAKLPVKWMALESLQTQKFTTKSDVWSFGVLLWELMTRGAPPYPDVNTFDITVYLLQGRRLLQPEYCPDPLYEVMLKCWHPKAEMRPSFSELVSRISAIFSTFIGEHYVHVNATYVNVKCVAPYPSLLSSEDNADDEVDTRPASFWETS
Specifically, the compound was prepared to a concentration of 1 mM in 100% DMSO and was diluted 10 times in a stepwise manner through 3-fold dilution. The compound (2 ul) diluted in a stepwise manner was added to a 96-well-plate containing 48 ul of a 1×kinase reaction buffer (50 mM HEPES (pH 7.4), 0.05% BSA, 0.005% Tween-20, 1 mM DTT, 0.5 mM MnCl2, 20 mM MgCl2).
The cMET protein was diluted to a concentration of 263 nM in a cMET storage buffer (50 mM Tris-HCl (pH 7.5), 150 mM NaCl, 0.05% Brij35, 1 mM DTT, 10% Glycerol), and then diluted again to a concentration of 2 nM in a 1×kinase reaction buffer. As a substrate cocktail, a MET-specific substrate mixed solution (5 uM TK peptide, 10 mM ATP) was prepared at a concentration 2 times the final reaction concentration.
(§1) Thereafter, a 384-well-plate was prepared, and 2.5 μl of each of the diluted compounds of Examples was added to a corresponding well of experimental group wells, and 2.5 μl of a 4% DMSO solution was dispensed into high control wells and low control wells.
(§2) Thereafter, 2.5 μL of 2 nM cMET was dispensed into each of the high control wells and the experimental group wells, and 2.5 μL of the 1× kinase reaction buffer was added to the low control wells, and all the wells were centrifuged at room temperature for 40 seconds at 1,000 RPM, and then incubated at room temperature for 20-30 minutes. Then, 5 μL of the substrate cocktail (2×) was dispensed into each well, and all the wells were centrifuged at room temperature for 40 seconds at 1,000 RPM, and then incubated at room temperature for 60 minutes. Thereafter, 5 μL of 90 mM EDTA was added to each well to terminate the reaction, and all the wells were then incubated again at room temperature for 5 minutes. Thereafter, 5 μL of a 4×phosphotyrosine antibody (Perkin Elmer) containing europium was added to each well, and all the wells were then incubated at room temperature for 60 minutes. After the incubation, the 384-well-plate was read with the Vison plate reader. In this case, the excitation wavelength was 340 nm, and the emission wavelength was 620 nm and 665 nm. The pe50 value of each compound of Examples was derived using the GraphPd Prism7 program.
In general terms: Time-resolved FRET reads energy transfer from a long-lived donor to a nearby acceptor.

A further experiment deals with RON (Homo sapiens, UniProt Q04912). Kind of experiment: Inhibitory activity against RON, TR-FRET kinase assay. The note with it: TR-FRET enzyme assay. It is filed as biochemical. Here is the method: In order to measure the inhibitory activity of each of the compounds of Examples against RON, the IC50 of each of the compounds was measured using Time-resolved fluorescence energy transfer (TR-FRET).
Sequence of RON (Q04912 25-1400, species assumed): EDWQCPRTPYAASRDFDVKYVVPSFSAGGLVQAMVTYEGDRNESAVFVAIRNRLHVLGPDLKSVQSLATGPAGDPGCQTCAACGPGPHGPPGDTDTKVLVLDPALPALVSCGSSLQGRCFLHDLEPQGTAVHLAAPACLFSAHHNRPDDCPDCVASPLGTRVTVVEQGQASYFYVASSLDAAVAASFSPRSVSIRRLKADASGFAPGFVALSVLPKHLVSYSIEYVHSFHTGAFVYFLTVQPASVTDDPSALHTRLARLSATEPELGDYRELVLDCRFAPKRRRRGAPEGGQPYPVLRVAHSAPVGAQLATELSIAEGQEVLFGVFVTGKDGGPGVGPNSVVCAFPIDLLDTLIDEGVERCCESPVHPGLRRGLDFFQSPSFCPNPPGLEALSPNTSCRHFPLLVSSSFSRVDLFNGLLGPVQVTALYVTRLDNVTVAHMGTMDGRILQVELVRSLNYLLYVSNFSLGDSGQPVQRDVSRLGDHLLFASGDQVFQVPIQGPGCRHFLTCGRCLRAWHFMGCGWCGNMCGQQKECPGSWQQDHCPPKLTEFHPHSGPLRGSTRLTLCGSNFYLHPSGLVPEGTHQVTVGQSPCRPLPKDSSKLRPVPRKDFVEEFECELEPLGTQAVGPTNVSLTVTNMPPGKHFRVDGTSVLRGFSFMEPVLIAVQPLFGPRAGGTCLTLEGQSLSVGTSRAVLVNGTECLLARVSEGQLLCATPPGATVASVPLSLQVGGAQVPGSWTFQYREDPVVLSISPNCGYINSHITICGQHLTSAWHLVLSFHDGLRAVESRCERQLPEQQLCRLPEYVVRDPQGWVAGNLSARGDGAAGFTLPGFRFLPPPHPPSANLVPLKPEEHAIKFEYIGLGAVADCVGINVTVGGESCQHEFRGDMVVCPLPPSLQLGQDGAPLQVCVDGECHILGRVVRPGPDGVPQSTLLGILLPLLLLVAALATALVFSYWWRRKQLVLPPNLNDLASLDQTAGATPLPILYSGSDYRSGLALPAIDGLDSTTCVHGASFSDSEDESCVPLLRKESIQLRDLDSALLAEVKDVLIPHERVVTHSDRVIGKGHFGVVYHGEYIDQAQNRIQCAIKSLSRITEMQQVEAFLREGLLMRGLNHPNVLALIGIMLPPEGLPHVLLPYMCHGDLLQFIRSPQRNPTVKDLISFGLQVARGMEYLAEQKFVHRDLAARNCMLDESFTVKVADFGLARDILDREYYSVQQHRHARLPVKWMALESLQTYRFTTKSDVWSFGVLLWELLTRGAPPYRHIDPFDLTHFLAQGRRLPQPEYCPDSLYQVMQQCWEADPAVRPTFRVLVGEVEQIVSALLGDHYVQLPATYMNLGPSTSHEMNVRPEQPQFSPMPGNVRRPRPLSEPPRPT
Specifically, the compound was prepared to a concentration of 1 mM in 100% DMSO and was diluted 10 times in a stepwise manner through 3-fold dilution. The compound (2 ul) diluted in a stepwise manner was added to a 96-well-plate containing 48 ul of a 1× kinase reaction buffer (50 mM HEPES (pH 7.4), 0.01% Tween-20, 5 mM DTT, 0.5 mM Na3VO4, 2 mM EGTA, 10 mM MgCl2).
The RON protein was diluted to a concentration of 49.3 nM in a RON storage buffer (50 mM Tris-HCl (pH 7.5), 150 mM NaCl, 0.5 mM EDTA, 0.02% Triton X-100), and then diluted again to a concentration of 0.4 nM in a 1×kinase reaction buffer. As a substrate cocktail, a RON-specific substrate mixed solution (40 uM ULight-labeled Poly GT, 100 nM ATP) was prepared at a concentration 2 times the final reaction concentration.
as §1
as §2, with “of 0.4” for “of 2”, “nM RON” for “nM cMET”, “of 30” for “of 90”, “The IC50” for “The pe50”

In general, IC50 refers to the concentration that gives 50% inhibition. Higher therefore signals lower potency.

For `Nc1nccc(Oc2ccc(NC(=O)c3cnn(-c4ncccc4C(F)(F)F)c3C(F)(F)F)cc2F)c1Cl` [Example 11, N-(4-((2-amino-3-chloropyridin-4-yl)oxy)-3-fluorophenyl)-5-(trifluoromethyl)-1-(3-(trifluoromethyl)pyridin-2-yl)-1H-pyrazole-4-carboxamide], the IC50 lay in the range of 0.5 to 5 µM against cMET and 50 to 500 nM against RON.
For `Nc1nccc(Oc2ccc(NC(=O)c3cnn(-c4ccncn4)c3C(F)(F)F)cc2F)c1Cl` [Example 22, N-(4-((2-amino-3-chloropyridin-4-yl)oxy)-3-fluorophenyl)-1-(pyrimidin-4-yl)-5-(trifluoromethyl)-1H-pyrazole-4-carboxamide], in that order: greater than 5 µM and 50 to 500 nM.
Regarding `CCOc1cccnc1-n1ncc(C(=O)Nc2ccc(Oc3ccnc(N)c3Cl)c(F)c2)c1C(F)(F)F` [Example 24, N-(4-((2-amino-3-chloropyridin-4-yl)oxy)-3-fluorophenyl)-1-(3-ethoxypyridin-2-yl)-5-(trifluoromethyl)-1H-pyrazole-4-carboxamide], the IC50 fell in the range of 0.5 to 5 µM at cMET and 50 to 500 nM on RON.
For `Cc1cccnc1-n1ncc(C(=O)Nc2ccc(Oc3ncnc(N)c3Cl)c(F)c2)c1C(F)(F)F` [Example 46, N-[4-(6-amino-5-chloro-pyrimidin-4-yl)oxy-3-fluoro-phenyl]-1-(3-methyl-2-pyridyl)-5-(trifluoromethyl)pyrazole-4-carboxamide], in that order: greater than 5 µM and 50 to 500 nM.
The corresponding values for `Nc1nccc(Oc2ccc(NC(=O)c3cnn(-c4cc(F)ccn4)c3C(F)(F)F)cc2F)c1Cl` [Example 25, N-(4-((2-amino-3-chloropyridin-4-yl)oxy)-3-fluorophenyl)-1-(4-fluoropyridin-2-yl)-5-(trifluoromethyl)-1H-pyrazole-4-carboxamide] are greater than 5 µM and less than 50 nM.
`Cc1ccnc(-n2ncc(C(=O)Nc3ccc(Oc4ncnc(N)c4Cl)c(F)c3)c2C(F)(F)F)c1` [Example 47, N-[4-(6-amino-5-chloro-pyrimidin-4-yl)oxy-3-fluoro-phenyl]-1-(4-methyl-2-pyridyl)-5-(trifluoromethyl)pyrazole-4-carboxamide]: the IC50 at cMET is greater than 5 µM; on RON it was 50 to 500 nM.
The corresponding values for `O=C(Nc1ccc(Oc2ncnc(NC3CC3)c2Cl)c(F)c1)c1cnn(-c2ncccc2F)c1C(F)(F)F` [Example 65, N-[4-[5-chloro-6-(cyclopropylamino)pyrimidin-4-yl]oxy-3-fluoro-phenyl]-1-(3-fluoro-2-pyridyl)-5-(trifluoromethyl)pyrazole-4-carboxamide] are greater than 5 µM and 500 to 5000 nM.
On to `Cc1cccnc1-n1ncc(C(=O)Nc2ccc(Oc3ccnc(N)c3Cl)c(F)c2)c1C(F)(F)F` [Example 9, N-(4-((2-amino-3-chloropyridin-4-yl)oxy)-3-fluorophenyl)-1-(3-methylpyridin-2-yl)-5-(trifluoromethyl)-1H-pyrazole-4-carboxamide], for which the half-maximal inhibitory concentration (IC50) at cMET was 0.5 to 5 µM; against RON, less than 50 nM.
The corresponding values for `Cc1ccnc(-n2ncc(C(=O)Nc3ccc(Oc4ccnc(N)c4Cl)c(F)c3)c2C(F)(F)F)n1` [Example 23, N-(4-((2-amino-3-chloropyridin-4-yl)oxy)-3-fluorophenyl)-1-(4-methylpyrimidin-2-yl)-5-(trifluoromethyl)-1 H-pyrazole-4-carboxamide] are greater than 5 µM and 50 to 500 nM.
`Cn1cc(-n2ncc(C(=O)Nc3ccc(Oc4ncnc(N)c4Cl)c(F)c3)c2C(F)(F)F)cn1` [Example 42, N-[4-(6-amino-5-chloro-pyrimidin-4-yl)oxy-3-fluoro-phenyl]-1-(1-methylpyrazol-4-yl)-5-(trifluoromethyl)pyrazole-4-carboxamide]: the IC50 against cMET was greater than 5 µM; against RON, 500 to 5000 nM.
For `Nc1nccc(Oc2ccc(NC(=O)c3cnn(-c4nc(-c5ccccc5)cs4)c3C(F)(F)F)cc2F)c1Cl` [Example 3, N-(4-((2-amino-3-chloropyridin-4-yl)oxy)-3-fluorophenyl)-1-(4-phenylthiazol-2-yl)-5-(trifluoromethyl)-1H-pyrazole-4-carboxamide], in that order: greater than 5 µM and greater than 5000 nM.
For `Nc1ncnc(Oc2ccc(NC(=O)c3nc(-c4ccccc4)cs3)cc2F)c1Cl` [Example 41, N-[4-(6-amino-5-chloro-pyrimidin-4-yl)oxy-3-fluoro-phenyl]-4-phenyl-thiazole-2-carboxamide], in that order: greater than 5 µM and greater than 5000 nM.
For `CCc1c(C(=O)Nc2ccc(Oc3ccnc(N)c3Cl)c(F)c2)cnn1-c1ncccc1Cl` [Example 36, N-(4-((2-amino-3-chloropyridin-4-yl)oxy)-3-fluorophenyl)-1-(3-chloropyridin-2-yl)-5-ethyl-1H-pyrazole-4-carboxamide], in that order: 0.5 to 5 µM and 50 to 500 nM.
Turning to `CCc1c(C(=O)Nc2ccc(Oc3ccnc(N)c3Cl)c(F)c2)cnn1-c1cccnc1` [Example 5, N-(4-((2-amino-3-chloropyridin-4-yl)oxy)-3-fluorophenyl)-5-ethyl-1-(pyridin-3-yl)-1H-pyrazole-4-carboxamide], the IC50 lay within 0.5 to 5 µM against cMET and 50 to 500 nM against RON.
For `Nc1ncnc(Oc2ccc(NC(=O)c3cnn(-c4ncccc4Cl)c3C(F)(F)F)cc2F)c1Cl` [Example 51, N-[4-(6-amino-5-chloro-pyrimidin-4-yl)oxy-3-fluoro-phenyl]-1-(3-chloro-2-pyridyl)-5-(trifluoromethyl)pyrazole-4-carboxamide], in that order: 0.5 to 5 µM and less than 50 nM.
The corresponding values for `Nc1ncnc(Oc2ccc(NC(=O)c3cnn(-c4ccc(F)cn4)c3C(F)(F)F)cc2F)c1Cl` [Example 50, N-[4-(6-amino-5-chloro-pyrimidin-4-yl)oxy-3-fluoro-phenyl]-1-(5-fluoro-2-pyridyl)-5-(trifluoromethyl)pyrazole-4-carboxamide] are greater than 5 µM and 50 to 500 nM.
For `Cc1ccc(-n2ncc(C(=O)Nc3ccc(Oc4ncnc(N)c4Cl)c(F)c3)c2C(F)(F)F)nc1` [Example 48, N-[4-(6-amino-5-chloro-pyrimidin-4-yl)oxy-3-fluoro-phenyl]-1-(5-methyl-2-pyridyl)-5-(trifluoromethyl)pyrazole-4-carboxamide], in that order: greater than 5 µM and 500 to 5000 nM.
Turning to `Nc1nccc(Oc2ccc(NC(=O)c3cnn(-c4cncnc4)c3C(F)(F)F)cc2F)c1Cl` [Example 6, N-(4-((2-amino-3-chloropyridin-4-yl)oxy)-3-fluorophenyl)-1-(pyrimidin-5-yl)-5-(trifluoromethyl)-1H-pyrazole-4-carboxamide], the 50% inhibitory concentration (IC50) at cMET was greater than 5 µM; against RON, 50 to 500 nM.
For `Cc1cccc(-n2ncc(C(=O)Nc3ccc(Oc4ncnc(N)c4Cl)c(F)c3)c2C(F)(F)F)n1` [Example 49, N-[4-(6-amino-5-chloro-pyrimidin-4-yl)oxy-3-fluoro-phenyl]-1-(6-methyl-2-pyridyl)-5-(trifluoromethyl)pyrazole-4-carboxamide], in that order: greater than 5 µM and 500 to 5000 nM.
